Test results from patent EP0844825B1, “INSECTICIDAL N-(SUBSTITUTED ARYLMETHYL)-4- BIS(SUBSTITUTED PHENYL OR PYRIDYL)METHYL]PIPERIDINES” (FMC CORPORATION, priority 1995, dated 1996).

Tested on: tobacco budworm (Heliothis virescens [Fabricius])
Test: Diet test: test chemical incorporated into artificial diet of tobacco budworm larvae, 5-day exposure
Assay type: in vivo
Details: for IC50 / LC50 / mortality at 100 µM / pest or weed control at 100 µM: Heliothis virescens, 120 h; for IC50: negative log of the concentration that provides 50% growth inhibition, by linear regression, read-out: pl50 (converted); for IC50 / LC50 / pest or weed control at 100 µM / Percent Growth Inhibition: 5 days, * = average of more than one test; for LC50: negative log of the concentration that provides 50% mortality, read-out: pLC50 (converted); for mortality at 100 µM / pest or weed control at 100 µM: feed or water; for mortality at 100 µM: read-out: Percent Mortality; for pest or weed control at 100 µM / Percent Growth Inhibition: rate of application 4 (negative log of molar concentration in the diet), second instar larvae, 25°C; for pest or weed control at 100 µM: read-out: Percent Growth Inhibition
Description: Candidate insecticides were incorporated into an artificial diet for evaluation of insecticidal activity against the tobacco budworm (Heliothis virescens [Fabricius]) in the following manner. Stock solutions of test chemical in dimethyl sulfoxide, ranging from […], were prepared for each rate of application. One hundred microliters of each of the stock solutions was manually stirred into 50 mL of a molten (65-70°C) wheat germ-based artificial diet. The 50 mL of molten diet containing the test chemical was poured evenly into twenty wells in the outer two rows on each side of a twenty-five well, five row plastic tray. (Each well in the tray was about 1 cm in depth, with an opening of 3 cm by 4 cm at the lip.) Molten diet containing only dimethyl sulfoxide at the levels used in the test chemical-treated diet was poured into the five wells in the third (center) row of the tray. Each tray therefore contained one test chemical at a single rate of application, together with an untreated control. The rates of application, expressed as the negative log of the molar concentration, and the corresponding concentrations of the stock solution prepared for each rate are shown below:
Single second instar tobacco budworm larvae, selected at a stage of growth at which they uniformly weigh about 5 mg each, were placed in each well. Upon completion of infestation, a sheet of clear plastic was heat-sealed over the top of the tray by use of a common household flat.iron. The trays were held at 25°C at 60% relative humidity for five days in a growth chamber. Lighting was set at 14 hours of light and 10 hours of darkness. After the 5-day exposure period, mortality counts were taken, and the surviving insects were weighed. From the weights of the surviving insects that fed on the treated diet as compared to those insects that fed on the untreated diet, the percent growth inhibition caused by each test chemical was determined. […] Also, where possible, the negative log of the concentration of the test chemical that provided 50% mortality (pLC50) was determined.

Compound | IC50 [µM] | LC50 [µM] | mortality at 100 µM [%] | pest or weed control at 100 µM [%] | Percent Growth Inhibition [%]
COc1ccc(CCN2CCC(C(O)(c3ccc(OC(F)(F)F)cc3)c3ccc(OC(F)(F)F)cc3)CC2)cc1 [Compound 2, N-[2-(4-methoxyphenyl)ethyl]-4-[bis(4-trifluoromethoxyphenyl)hydroxymethyl]piperidine] | 2.51 | > 100 | 25 | 98 | 
CC(=O)Nc1ccc(CN2CCC(C(O)(c3ccc(OC(F)(F)F)cc3)c3ccc(OC(F)(F)F)cc3)CC2)cc1 [Compound 3, N-[4-(methylcarbonylamino)phenylmethyl]-4-[bis(4-trifluoromethoxyphenyl)hydroxymethyl]piperidine] | 20 |  | 0 | 95 | 
Cn1ccc(-c2ccc(CN3CCC(C(O)(c4ccc(OC(F)(F)F)cc4)c4ccc(OC(F)(F)F)cc4)CC3)cc2)c1 [Compound 4] |  |  | 100 |  | 
Cc1cc(C)n(-c2ccc(CN3CCC(C(O)(c4ccc(OC(F)(F)F)cc4)c4ccc(OC(F)(F)F)cc4)CC3)cc2)n1 [Compound 5] |  |  | 100 |  | 
Cc1noc(-c2ccc(CN3CCC(C(O)(c4ccc(OC(F)(F)F)cc4)c4ccc(OC(F)(F)F)cc4)CC3)cc2)n1 [Compound 6] |  |  | 100 |  | 
Cn1nnnc1-c1ccc(CN2CCC(C(O)(c3ccc(OC(F)(F)F)cc3)c3ccc(OC(F)(F)F)cc3)CC2)cc1 [Compound 8, N-[4-(1-methyltetrazol-5-yl)phenylmethyl]-4-[bis(4-trifluoromethoxyphenyl)hydroxymethyl]piperidine] | 31.6 |  | 0 | 79 | 
Cn1ncn(-c2ccc(CN3CCC(C(O)(c4ccc(C(F)(F)F)cc4)c4ccc(C(F)(F)F)cc4)CC3)cc2)c1=O [Compound 12, N-[4-(4,5-dihydro-1-methyl-5-oxo-1H-1,2,4-triazol-4-yl)phenylmethyl]-4-[bis(4-trifluoromethylphenyl)hydroxymethyl]piperidine] | 3.98 | > 100 | 35 | 98 | 
OC(c1ccc(OC(F)(F)F)cc1)(c1ccc(OC(F)(F)F)cc1)C1CCN(Cc2ccc(-c3csnn3)cc2)CC1 [Compound 14] | 3.16 | 31.6 | 100 |  | 99
Cn1nnc(-c2ccc(C[N+]3([O-])CCC(C(O)(c4ccc(OC(F)(F)F)cc4)c4ccc(OC(F)(F)F)cc4)CC3)cc2)n1 (stereo not drawn) [Compound 15] |  |  | 100 |  | 
CC(C)c1cnc(-c2ccc(CN3CCC(C(O)(c4ccc(C(F)(F)F)cc4)c4ccc(C(F)(F)F)cc4)CC3)cc2)o1 [Compound 19] |  |  | 90 |  | 
O=C1OCCN1c1ccc(CN2CCC(C(O)(c3ccc(C(F)(F)F)cc3)c3ccc(C(F)(F)F)cc3)CC2)cc1 [Compound 20] |  |  | 10 |  | 
O=C1OCCN1c1ccc(C[N+]2([O-])CCC(C(O)(c3ccc(C(F)(F)F)cc3)c3ccc(C(F)(F)F)cc3)CC2)cc1 (stereo not drawn) [Compound 21] |  |  | 10 |  | 
CC1CN(c2ccc(CN3CCC(C(O)(c4ccc(C(F)(F)F)cc4)c4ccc(C(F)(F)F)cc4)CC3)cc2)C(=O)O1 (stereo not drawn) [Compound 22] |  |  | 35 |  | 
CC1CN(c2ccc(C[N+]3([O-])CCC(C(O)(c4ccc(C(F)(F)F)cc4)c4ccc(C(F)(F)F)cc4)CC3)cc2)C(=O)O1 (stereo not drawn) [Compound 23] |  |  | 65 |  | 
CC1CN(C(=O)c2ccc(CN3CCC(C(O)(c4ccc(C(F)(F)F)cc4)c4ccc(C(F)(F)F)cc4)CC3)cc2)C(=O)O1 (stereo not drawn) [Compound 24] | 31.6 | > 316 | 0 |  | 86
Cn1cnc(-c2ccc(CN3CCC(C(O)(c4ccc(C(F)(F)F)cc4)c4ccc(C(F)(F)F)cc4)CC3)cc2)n1 [Compound 27] |  |  | 100 |  | 
Cn1cnc(-c2ccc(C[N+]3([O-])CCC(C(O)(c4ccc(C(F)(F)F)cc4)c4ccc(C(F)(F)F)cc4)CC3)cc2)n1 (stereo not drawn) [Compound 28] |  |  | 100 |  | 
OC(c1ccc(C(F)(F)F)cc1)(c1ccc(C(F)(F)F)cc1)C1CCN(Cc2ccc(Oc3nsnc3Cl)cc2)CC1 [Compound 29] |  |  | 60 |  | 
[O-][N+]1(Cc2ccc(Oc3nsnc3Cl)cc2)CCC(C(O)(c2ccc(C(F)(F)F)cc2)c2ccc(C(F)(F)F)cc2)CC1 (stereo not drawn) [Compound 30] |  |  | 40 |  | 
CC(C)n1nnc(-c2ccc(CN3CCC(C(O)(c4ccc(C(F)(F)F)cc4)c4ccc(C(F)(F)F)cc4)CC3)cc2)n1 [Compound 35] |  |  | 100 |  | 
CC(C)n1nnc(-c2ccc(C[N+]3([O-])CCC(C(O)(c4ccc(C(F)(F)F)cc4)c4ccc(C(F)(F)F)cc4)CC3)cc2)n1 (stereo not drawn) [Compound 36] |  |  | 100 |  | 

Compound | IC50 [µM] | LC50 [µM] | mortality at 100 µM [%] | pest or weed control at 100 µM [%] | Percent Growth Inhibition [%]
CC(C)(C)n1nnc(-c2ccc(CN3CCC(C(O)(c4ccc(C(F)(F)F)cc4)c4ccc(C(F)(F)F)cc4)CC3)cc2)n1 [Compound 37] |  |  | 100 |  | 
OC(c1ccc(C(F)(F)F)cc1)(c1ccc(C(F)(F)F)cc1)C1CCN(Cc2ccc(-c3nnn(C(F)F)n3)cc2)CC1 [Compound 38] | 0.631 | 2.51 | 100 |  | 100
[O-][N+]1(Cc2ccc(-c3nnn(C(F)F)n3)cc2)CCC(C(O)(c2ccc(C(F)(F)F)cc2)c2ccc(C(F)(F)F)cc2)CC1 (stereo not drawn) [Compound 39] |  |  | 100 |  | 
OC(c1ccc(C(F)(F)F)cc1)(c1ccc(C(F)(F)F)cc1)C1CCN(Cc2ccc(-c3nnn(CCCF)n3)cc2)CC1 [Compound 40] | 0.631 | 3.98 | 100 |  | 100
COCn1nnc(-c2ccc(CN3CCC(C(O)(c4ccc(C(F)(F)F)cc4)c4ccc(C(F)(F)F)cc4)CC3)cc2)n1 [Compound 41] |  |  | 100 |  | 
COCn1nnc(-c2ccc(C[N+]3([O-])CCC(C(O)(c4ccc(C(F)(F)F)cc4)c4ccc(C(F)(F)F)cc4)CC3)cc2)n1 (stereo not drawn) [Compound 42] |  |  | 100 |  | 
OC(c1ccc(C(F)(F)F)cc1)(c1ccc(C(F)(F)F)cc1)C1CCN(Cc2ccc(-c3ccccn3)cc2)CC1 [Compound 43] | ≤ 0.316 | 3.16 | 100 |  | 100
[O-][N+]1(Cc2ccc(-c3ccccn3)cc2)CCC(C(O)(c2ccc(C(F)(F)F)cc2)c2ccc(C(F)(F)F)cc2)CC1 (stereo not drawn) [Compound 44] |  |  | 100 |  | 
[O-][n+]1ccccc1-c1ccc(CN2CCC(C(O)(c3ccc(C(F)(F)F)cc3)c3ccc(C(F)(F)F)cc3)CC2)cc1 [Compound 45] |  |  | 100 |  | 
[O-][n+]1ccccc1-c1ccc(C[N+]2([O-])CCC(C(O)(c3ccc(C(F)(F)F)cc3)c3ccc(C(F)(F)F)cc3)CC2)cc1 (stereo not drawn) [Compound 46] |  |  | 100 |  | 
OC(c1ccc(C(F)(F)F)cc1)(c1ccc(C(F)(F)F)cc1)C1CCN(Cc2ccc(-c3ccc(Cl)cn3)cc2)CC1 [Compound 47] | 31.6 | 31.6 | 100 |  | 100
[O-][N+]1(Cc2ccc(-c3ccc(Cl)cn3)cc2)CCC(C(O)(c2ccc(C(F)(F)F)cc2)c2ccc(C(F)(F)F)cc2)CC1 (stereo not drawn) [Compound 48] |  |  | 85 |  | 
Cc1cccc(-c2ccc(CN3CCC(C(O)(c4ccc(C(F)(F)F)cc4)c4ccc(C(F)(F)F)cc4)CC3)cc2)n1 [Compound 49] |  |  | 100 |  | 
Cc1cccc(-c2ccc(C[N+]3([O-])CCC(C(O)(c4ccc(C(F)(F)F)cc4)c4ccc(C(F)(F)F)cc4)CC3)cc2)n1 (stereo not drawn) [Compound 50] |  |  | 100 |  | 
Cc1ccc(-c2ccc(CN3CCC(C(O)(c4ccc(C(F)(F)F)cc4)c4ccc(C(F)(F)F)cc4)CC3)cc2)nc1 [Compound 51] |  |  | 100 |  | 
OC(c1ccc(C(F)(F)F)cc1)(c1ccc(C(F)(F)F)cc1)C1CCN(Cc2ccc(Oc3ccccn3)cc2)CC1 [Compound 53] |  |  | 100 |  | 
[O-][N+]1(Cc2ccc(Oc3ccccn3)cc2)CCC(C(O)(c2ccc(C(F)(F)F)cc2)c2ccc(C(F)(F)F)cc2)CC1 (stereo not drawn) [Compound 54] |  |  | 100 |  | 
[O-][n+]1ccccc1Oc1ccc(CN2CCC(C(O)(c3ccc(C(F)(F)F)cc3)c3ccc(C(F)(F)F)cc3)CC2)cc1 [Compound 55] | 3.16 | 79.4 | 55 |  | 100
[O-][n+]1ccccc1Oc1ccc(C[N+]2([O-])CCC(C(O)(c3ccc(C(F)(F)F)cc3)c3ccc(C(F)(F)F)cc3)CC2)cc1 (stereo not drawn) [Compound 56] |  |  | 100 |  | 
Cc1cccnc1Oc1ccc(CN2CCC(C(O)(c3ccc(C(F)(F)F)cc3)c3ccc(C(F)(F)F)cc3)CC2)cc1 [Compound 57] | 0.794 | 7.94 | 100 |  | 100
